Consider three compounds from patent US20240174727A1, “LONG-ACTING NATRIURETIC PEPTIDES AND USES THEREOF” (Eli Lilly and Company, priority 2022, published 2024).

The target of this assay is T1, rat NPRA (Rattus norvegicus, UniProt P18910).
T1 construct: Full-Length cDNA Cloning and Generation of Cell Lines Overexpressing Natriuretic Peptide Receptors (NPRs); expressed in transfected cells; host or cells: Jump-in T-Rex HEK293 cells, pJTI R4 CMV-TO MCS pA vector, tetracycline induction
T1 sequence (P18910 29-1057): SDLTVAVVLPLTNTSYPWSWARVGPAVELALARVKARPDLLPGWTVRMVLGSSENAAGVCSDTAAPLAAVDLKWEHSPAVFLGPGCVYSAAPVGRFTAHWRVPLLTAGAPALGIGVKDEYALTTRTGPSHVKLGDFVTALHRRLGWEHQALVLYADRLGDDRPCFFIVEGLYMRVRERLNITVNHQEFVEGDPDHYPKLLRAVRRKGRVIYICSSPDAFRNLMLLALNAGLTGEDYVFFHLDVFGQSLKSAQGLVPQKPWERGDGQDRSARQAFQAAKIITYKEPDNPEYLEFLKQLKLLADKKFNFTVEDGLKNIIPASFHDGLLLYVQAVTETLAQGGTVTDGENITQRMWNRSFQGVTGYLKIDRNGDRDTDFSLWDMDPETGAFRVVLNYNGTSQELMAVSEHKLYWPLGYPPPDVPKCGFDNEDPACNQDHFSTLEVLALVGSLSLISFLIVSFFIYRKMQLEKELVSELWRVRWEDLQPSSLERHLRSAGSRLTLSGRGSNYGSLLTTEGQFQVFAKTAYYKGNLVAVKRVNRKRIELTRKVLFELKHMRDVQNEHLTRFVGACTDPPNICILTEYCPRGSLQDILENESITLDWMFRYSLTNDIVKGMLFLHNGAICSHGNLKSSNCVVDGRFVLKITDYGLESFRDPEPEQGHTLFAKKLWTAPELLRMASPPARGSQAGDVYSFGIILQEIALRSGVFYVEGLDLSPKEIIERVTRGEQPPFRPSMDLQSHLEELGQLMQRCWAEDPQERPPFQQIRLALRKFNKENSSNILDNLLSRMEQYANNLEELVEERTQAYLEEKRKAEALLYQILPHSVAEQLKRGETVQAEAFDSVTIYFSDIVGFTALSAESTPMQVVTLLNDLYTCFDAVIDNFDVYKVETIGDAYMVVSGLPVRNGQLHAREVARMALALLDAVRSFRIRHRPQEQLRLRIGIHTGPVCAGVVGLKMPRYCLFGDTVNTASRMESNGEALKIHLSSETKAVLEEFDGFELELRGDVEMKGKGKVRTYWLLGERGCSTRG
Briefly: Rat NPRA cGMP activity assay (HTRF) in HEK293 cells overexpressing NPRA. The class given is cell-based. Here is the method: All sequences were verified by full-length sequencing performed by ACGT DNA Sequencing Services (Wheeling, IL). The target cDNA was cloned into pJTI R4 CMV-TO MCS pA vector and then co-transfected with pJT1R4 Int vector into Jump-in™ T-Rex™ HEK293 cells for mammalian inducible expression using Jump-in™ T-Rex™ HEK293 kit and Lipofectamine LTX and Plus Reagent following manufacturer's protocols, as briefly described below.
Jump-in™ T-Rex™ HEK293 cells were plated in a BioCOAT® poly-D-lysine coated 6-well plate (Becton Dickinson, cat no. 354413) at 1 million cells/well in 2 mL culture medium and incubated for 18 h at 37° C. and 5% CO2 to 50-70% confluence. A cDNA mix was made in a 50 mL tube by adding 1.5 μg target cDNA, 1.5 μg pJT1R4 Int vector, 3 μL Plus Reagent, and 300 μL Opti-MEM I sequentially into the tube. A reagent mix was made in a separate 50 mL tube by adding 7.5 μL Lipofectamine LTX into 300 μL Opti-MEM I. The mixtures were incubated for 5 min at room temperature. The cDNA mix was then transferred into the reagent mix, mixed well, and incubated for additional 30 min at room temperature. A 500 μL of cDNA/Lipofectamine complex was then transferred to the wells of the cell plate in which the culture medium was changed to 2 mL of transfection medium containing DMEM with 4.5 g/L D-glucose supplemented with 10% FBS-HI and 20 mM HEPES. Transfected cells were cultured for 48 h in an incubator at 37° C. and 5% CO2. A subclone or pool from each overexpressing cell line was maintained in culture medium with the addition of 2 mg/mL G418 sulfate for the clone selection based on its built-in resistance to G418 sulfate for at least 3 weeks with medium changed every 2-3 days.
NPRs were overexpressed in T-Rex™ HEK293 cells following the induction with 300 ng/mL tetracycline in culture medium for 48 h. Induced cell lines in an exponential growth phase were treated with 0.05% trypsin-EDTA for a few seconds at room temperature, harvested in cell medium containing FBS to neutralize the trypsin, counted, and cryopreserved at the density of 2 million cells/mL in cell preservation solution containing FBS-HI with 5% DMSO. Cryopreserved cells were stored at −80° C. for a few days prior to transferring to a liquid nitrogen tank. Induced cell lines were then used for suspension assays to measure the activity of polypeptides to stimulate cGMP production in cGMP assays or for the preparation of cell membranes to measure the binding activity of polypeptides in competitive radioligand binding assays, as described below.
Test polypeptides were added starting at 10 μM concentration and at 10-fold decreasing concentrations to obtain 8-point concentration-response curves (i.e., 10 μM to 1 pM). The quantity of cGMP generated was detected using HTRF® technology and normalized to maximum amount produced by 100 nM amidated rat ANP and the minimum amount produced by assay buffer. Detailed steps are outlined below.
Stock solutions of test polypeptides (2 mM) dissolved in DMSO were first diluted 100-fold in assay buffer containing HBSS with Ca^2+ and Mg^2+, 5 mM HEPES, 0.5 mM IBMX, and 0.1% BSA or 0.1% casein (pH 7.4). The polypeptides were further serially diluted in 1:10 dilution steps in assay buffer containing 0.1% BSA or 0.1% casein to generate 8-point 2× working stock solutions ranging from 20 μM to […].
A 10 μL cell suspension containing 4000 cells was plated in Costar® half-area white opaque 96-well plates (Corning, cat no. 3693). Then 10 μL of assay buffer (basal activity), 200 nM of amidated rat ANP (maximum activity) or 2× working stock solutions of test polypeptides were transferred into the plate. Final concentration of DMSO in each well was 0.5%. The plate was shaken for 15 sec and then incubated for 40 min at room temperature.
The cGMP generated was measured using cGMP kit following the manufacturer's directions, as described below.
A general note: In TR-FRET formats the signal depends on donor and acceptor labels being close together.

Setting [1] is: cGMP Assay (EC50, pM) w/BSA rNPRA, assay buffer with 0.1% BSA.

Like-named read-outs stand apart in the source and are kept apart here.

For `CC[C@H](C)[C@@H]1NC(=O)[C@H](CCCNC(=N)N)NC(=O)[C@H](CC(=O)O)NC(=O)[C@H]([C@@H](C)CC)NC(=O)[C@H](CCCNC(=N)N)NC(=O)[C@H](CCCCN)NC(=O)CNC(=O)[C@H](Cc2ccccc2)NC(=O)[C@@H](NC(=O)[C@H](CO)NC(=O)[C@H](CO)NC(=O)[C@H](CCCNC(=N)N)NC(=O)CCNC(=O)[C@H](CCCCN)NC(=O)[C@H](CCC(=O)O)NC(=O)COCCOCCNC(=O)COCCOCCNC(=O)COCCOCCNC(=O)COCCOCCNC(=O)COCCOCCNC(=O)COCCOCCNC(=O)COCCOCCNC(=O)COCCOCCNC(=O)CNC(=O)[C@H](CCCCN)NC(=O)[C@H](CCC(=O)O)NC(=O)[C@H](CCCCN)NC(=O)[C@H](CCC(=O)O)NC(=O)[C@H](CCCCN)NC(=O)[C@H](CCC(=O)O)NC(=O)CC[C@H](NC(=O)CCCCCCCCCCCCCCCCCCC(=O)O)C(=O)O)CSCSC[C@@H](C(=O)N2CCC[C@H]2C(=O)N[C@@H](CO)C(=O)N[C@@H](Cc2ccccc2)C(=O)N[C@@H](CCCNC(=N)N)C(=O)N[C@@H](Cc2c[nH]cn2)C(=O)NCC(=O)N[C@@H](CO)C(=O)N2CCC[C@H]2C(=O)N[C@@H](CO)C(=O)N[C@@H](CO)C(=O)NCC(=O)N[C@@H](C)C(=O)N2CCC[C@H]2C(=O)N2CCC[C@H]2C(=O)N2CCC[C@H]2C(=O)N[C@@H](CO)C(N)=O)NC(=O)CNC(=O)[C@H](CC(C)C)NC(=O)CNC(=O)[C@H](CO)NC(=O)[C@H](CCC(N)=O)NC(=O)[C@H](Cc2c[nH]cn2)NC(=O)CNC1=O` [Example 120], under “assay buffer with 0.1% casein, read-out: cGMP Assay (EC50, pM) w/Casein rNPRA”, the EC50 is 25400 pM.

On to `CC[C@H](C)[C@@H]1NC(=O)[C@H](CCCNC(=N)N)NC(=O)[C@H](CC(=O)O)NC(=O)[C@H]([C@@H](C)CC)NC(=O)[C@H](CCCNC(=N)N)NC(=O)[C@H](CCCCN)NC(=O)CNC(=O)[C@H](Cc2ccccc2)NC(=O)[C@@H](NC(=O)[C@H](CO)NC(=O)[C@H](CO)NC(=O)[C@H](CCCNC(=N)N)NC(=O)[C@H](CCCNC(=N)N)NC(=O)[C@H](Cc2ccncc2)NC(=O)[C@H](CO)NC(=O)CCOCCOCCOCCOCCOCCOCCOCCOCCOCCOCCOCCOCCOCCOCCOCCOCCOCCOCCOCCOCCOCCOCCOCCOCCNC(=O)CNC(=O)[C@H](CCCCN)NC(=O)[C@H](CCC(=O)O)NC(=O)[C@H](CCCCN)NC(=O)[C@H](CCC(=O)O)NC(=O)[C@H](CCCCN)NC(=O)[C@H](CCC(=O)O)NC(=O)CC[C@H](NC(=O)CCCCCCCCCCCCCCCCCCC(=O)O)C(=O)O)CSCSC[C@@H](C(=O)N2CCC[C@H]2C(=O)N[C@@H](CO)C(=O)N[C@@H](Cc2ccccc2)C(=O)N[C@@H](CCCNC(=N)N)C(=O)N[C@@H](Cc2c[nH]cn2)C(=O)NCC(=O)N[C@@H](CO)C(=O)N2CCC[C@H]2C(=O)N[C@@H](CO)C(=O)N[C@@H](CO)C(=O)NCC(=O)N[C@@H](C)C(=O)N2CCC[C@H]2C(=O)N2CCC[C@H]2C(=O)N2CCC[C@H]2C(=O)N[C@@H](CO)C(N)=O)NC(=O)CNC(=O)[C@H](CC(C)C)NC(=O)CNC(=O)[C@H](CO)NC(=O)[C@H](Cc2ccc(O)cc2)NC(=O)[C@H](Cc2c[nH]cn2)NC(=O)CNC1=O` [Example 115], for which the EC50 under setting [1] turned out to be 100000 pM.

`CC[C@H](C)[C@@H]1NC(=O)[C@H](CCCNC(=N)N)NC(=O)[C@H](CC(=O)O)NC(=O)[C@H]([C@@H](C)CC)NC(=O)[C@H](CCCNC(=N)N)NC(=O)[C@H](CCCCN)NC(=O)CNC(=O)[C@H](Cc2ccccc2)NC(=O)[C@@H](NC(=O)[C@H](CO)NC(=O)[C@H](CO)NC(=O)[C@H](CCCNC(=N)N)NC(=O)[C@H](CCCNC(=N)N)NC(=O)[C@H](Cc2ccncc2)NC(=O)[C@H](CO)NC(=O)COCCOCCNC(=O)COCCOCCNC(=O)COCCOCCNC(=O)COCCOCCNC(=O)COCCOCCNC(=O)COCCOCCNC(=O)CNC(=O)[C@H](CCCCN)NC(=O)[C@H](CCC(=O)O)NC(=O)[C@H](CCCCN)NC(=O)[C@H](CCC(=O)O)NC(=O)[C@H](CCCCN)NC(=O)[C@H](CCC(=O)O)NC(=O)CC[C@H](NC(=O)CCCCCCCCCCCCCCCCCCC(=O)O)C(=O)O)CSCSC[C@@H](C(=O)N2CCC[C@H]2C(=O)N[C@@H](CO)C(=O)N[C@@H](Cc2ccccc2)C(=O)N[C@@H](CCCNC(=N)N)C(=O)N[C@@H](Cc2c[nH]cn2)C(=O)NCC(=O)N[C@@H](CO)C(=O)NCC(=O)N[C@@H](CO)C(=O)N2CCC[C@H]2C(=O)N[C@@H](CO)C(=O)N[C@@H](CO)C(=O)NCC(=O)N[C@@H](C)C(=O)N2CCC[C@H]2C(=O)N2CCC[C@H]2C(=O)N2CCC[C@H]2C(=O)N[C@@H](CO)C(=O)NCC(N)=O)NC(=O)CNC(=O)[C@H](CC(C)C)NC(=O)CNC(=O)[C@H](CO)NC(=O)[C@H](Cc2ccc(O)cc2)NC(=O)[C@H](Cc2c[nH]cn2)NC(=O)CNC1=O` [Example 117]: the EC50 under setting [1] came out at 200000 pM.
